We go through nine molecules from patent publication US20230242552A1, “Nitrogen-Containing Heterocyclic Compound, Preparation Method Therefor and Use Thereof” (280 Bio, Inc, priority 2022, published 2023).

What all share (conditions): CellTiter Glo, 120 hours incubation
Test [1] deals with A375 (wild type malignant melanoma cell line). As to the kind of experiment: Proliferation inhibition measured by CTG, A375. The class given is cell-based. As to the method:
(§1) NCI-H358 is a human non-small cell lung cancer cell line with KRAS G12C mutation; AGS is a gastric cancer cell line with KRAS G12D mutation; SW480 is a colon cancer cell lines with KRAS G12V mutation; A375 is a wild type malignant melanoma cell line. The proliferation inhibitory effect of the compounds on various mutations was evaluated by determining the proliferation inhibitory activity of the compounds on these cell lines.
(§2) The assay was conducted on either 384-well plates or 96-well plates. The procedures are as follows:
(§3) The cell suspensions were added to 384- or 96-well plates (384-well plate: 40 μL; 96-well plate: 100 μL) except for peripheral wells. The plates were incubated in a carbon dioxide incubator overnight. Prepared compounds (10 concentration gradients by serial 3-fold dilution) were added to the wells. The cell plates were incubated in a carbon dioxide incubator for 120 hours. CellTiter Glo reagent (384 well plate: 25 μL; 96 well plate: 100 μL) was added to the 384- or 96-well plates. The plates were shaken for 10 minutes away from light, and incubated for 10 minutes. The plates were read by EnVision system. Inhibition curves were plotted using XLFit and IC50 values were calculated. “IC50>10 μM” is denoted by “*”, “10 μM≥IC50>1 μM” is denoted by […] is denoted by “***”, “---” means no data.

Test [2] concerns NCI-H358 (KRAS G12C mutation). Put plainly: Proliferation inhibition measured by CTG, NCI-H358. The class given is cell-based, human. On the procedure:
as §1, §2, §3

In test [3] the test system is SW480 (colon cancer cell lines with KRAS G12V mutation). Put plainly: Proliferation inhibition measured by CTG, SW480. It is filed as cell-based. As to the method:
as §1, §2, §3

In test [4] the test system is AGS (gastric cancer cell line with KRAS G12D mutation). As to the kind of experiment: Proliferation inhibition measured by CTG, AGS. It is filed as cell-based. As to the method:
as §1, §2, §3

Where only a bound is given, the exact number is not on record here.

Take `C[C@@H]1Cc2cncc(F)c2CN1c1nc(OC[C@H]2CCCN2C)nc2c1CCN(c1cccc3cccc(F)c13)C2` [Compound 31]: the half-inhibitory concentration (IC50) in test [1] (Homo sapiens, A-375, 120 h) is ≤ 1 µM; in test [2] (Homo sapiens, NCI-H358, 120 h) it was ≤ 1 µM; in test [3] (Homo sapiens, SW480, 120 h) it was ≤ 1 µM; in test [4] (120 h), ≤ 1 µM.
Regarding `C[C@@H]1Cc2cncc(F)c2CN1c1nc(OC[C@@H]2CCCN2C)nc2cc(-c3ccc(F)c4sc(N)nc34)ccc12` [Compound 27], the 50% inhibitory concentration (IC50) was ≤ 1 µM in test [1] (Homo sapiens, A-375, 120 h); ≤ 1 µM in test [2] (Homo sapiens, NCI-H358, 120 h); ≤ 1 µM in test [3] (Homo sapiens, SW480, 120 h); ≤ 1 µM in test [4] (120 h).
Take `C[C@H]1Cc2cncc(F)c2CN1c1nc(OC[C@@H]2CCCN2C)nc2c1CCN(c1cccc3ncccc13)C2` [Compound 14]: the 50% inhibitory concentration (IC50) in test [1] (Homo sapiens, A-375, 120 h) lay in the range of 1 to 10 µM; in test [2] (Homo sapiens, NCI-H358, 120 h), 1 to 10 µM; in test [3] (Homo sapiens, SW480, 120 h) it was 1 to 10 µM; in test [4] (120 h), 1 to 10 µM.
On to `CC1Cc2cncc(F)c2CN1c1nc(OC[C@@H]2CCCN2C)nc2c1CCN(c1cccc3cccc(Cl)c13)C2` (single isomer, unassigned) [Compound 4-2], for which the IC50 in test [1], in test [2], in test [3] and in test [4] was ≤ 1 µM each time.
Regarding `C[C@@H]1Cc2cncc(F)c2CN1c1nc(OC[C@@H]2CCCN2C)nc2cc(-c3cccc4cccnc34)ccc12` [Compound 33], the IC50 in test [1] (Homo sapiens, A-375, 120 h) is ≤ 1 µM; in test [2] (Homo sapiens, NCI-H358, 120 h) it was ≤ 1 µM; in test [3] (Homo sapiens, SW480, 120 h) it was ≤ 1 µM; in test [4] (120 h) it was ≤ 1 µM.
In the case of `CC1Cc2cnccc2CN1c1nc(OC[C@@H]2CCCN2C)nc2c1CCN(c1cccc3cccc(Cl)c13)C2` (stereo partly drawn) [Compound 3-1], the IC50 lay in the range of 1 to 10 µM in test [1] (Homo sapiens, A-375, 120 h); 1 to 10 µM in test [2] (Homo sapiens, NCI-H358, 120 h); 1 to 10 µM in test [3] (Homo sapiens, SW480, 120 h); 1 to 10 µM in test [4] (120 h).
Regarding `C[C@H]1Cc2cncc(F)c2CN1c1nc(OC[C@@H]2CCCN2C)nc2c1CCN(c1cccc3ccncc13)C2` [Compound 18], the half-inhibitory concentration (IC50) in test [1] (Homo sapiens, A-375, 120 h) fell in the range of 1 to 10 µM; in test [2] (Homo sapiens, NCI-H358, 120 h) it was 1 to 10 µM; in test [3] (Homo sapiens, SW480, 120 h), 1 to 10 µM; in test [4] (120 h), 1 to 10 µM.
Turning to `C[C@H]1Cc2cncc(F)c2CN1c1nc(OC[C@@H]2CN(C)CCN2C)nc2c1CCN(c1cccc3cccc(F)c13)C2` [Compound 25], the half-maximal inhibitory concentration (IC50) was in the range of 1 to 10 µM in test [1] (Homo sapiens, A-375, 120 h); 1 to 10 µM in test [2] (Homo sapiens, NCI-H358, 120 h); 1 to 10 µM in test [3] (Homo sapiens, SW480, 120 h); 1 to 10 µM in test [4] (120 h).
`C[C@H]1Cc2cncc(F)c2CN1c1nc(OC[C@@H]2CCCN2C)nc2c1CCN(c1cccc3cccnc13)C2` [Compound 17]: the IC50 is 1 to 10 µM in test [1] (Homo sapiens, A-375, 120 h); ≤ 1 µM in test [2] (Homo sapiens, NCI-H358, 120 h); ≤ 1 µM in test [3] (Homo sapiens, SW480, 120 h); ≤ 1 µM in test [4] (120 h).

By IC50 is commonly meant the midpoint of a concentration-inhibition curve. A lower IC50 goes with greater potency.
